Data from article PMC9551036, “A selective and orally bioavailable VHL-recruiting PROTAC achieves SMARCA2 degradation in vivo” (Nature Communications, 2022).
Several values for one entry are separate records, joined by “and”; a condition that tells them apart may be missing. Equal entries are not always repeated.

Assays:
[1] = test system: VCB: PROTAC: SMARCA2^BD ternary complex; test: TR-FRET ternary complex affinity and cooperativity, SMARCA2; format: binding, human; details: ratio TR-FRET EC50 / TR-FRET EC50 +VCB measured in the same run, SMARCA2BD
VCB complex = target: T1, VCB complex (Homo sapiens, UniProt P40337); test: SPR binary binding to immobilised VCB complex
T1 construct: His6 (TEV site) (N, cleaved yes); made in house
Description: SMARCA4^BD was provided by the Structural Genomics Consortium (SGC), Toronto[32] and SMARCA2^BD and PRM1^BD5 were synthesised by GeneArt then subcloned into pDEST15 vectors (Invitrogen). The VCB complex was expressed and purified as described previously, with the modification that 0.3 mM IPTG was used for induction of expression. […] Both were stored in 20 mM 4-(2-hydroxyethyl)−1-piperazineethanesulfonic acid (HEPES), 150 mM sodium chloride and 1 mM tris(2-carboxyethyl)phosphine (TCEP) pH 7.5. SMARCA2^BD, SMARCA4^BD and PBRM1^BD5 were expressed in Escherichia coli BL21(DE3) as N-terminal GST fusion proteins with a TEV protease cleavage site. Expression and purification of these proteins has been described previously[32],[33]. Starter cultures were grown overnight at 37 °C in 10 mL of Luria-Bertani (LB) medium with ampicillin (100 μg/mL). The starter cultures were diluted (1:100) in Terrific Broth (TB) medium with ampicillin (100 μg/mL) and grown in a shaking incubator at 37 °C to an optical density (OD600) ~1 before the temperature was lowered for induction (to 23 °C for SMARCA2^BD or 18 °C for SMARCA4^BD and PRRM1^BD5). […] Cells were harvested by centrifugation and stored at −80 °C prior to purification. […] The Lysis buffers were as follows: for SMARCA2^BD: 50 mM HEPES, 500 mM sodium chloride, 5% glycerol, 5 mM dithiothreitol (DTT); for SMARCA4^BD: 25 mM HEPES, 0.3 M sodium chloride, 5% glycerol, 10 mM DTT, pH 7.5; for PBRM1^BD5: 25 mM HEPES, 300 mM sodium chloride, 5% glycerol, 10 mM DTT, pH 7.8; in each case supplemented with complete protease inhibitors (Roche). Affinity purification was performed using Glutathione Sepharose 4B (GE Healthcare) in batch mode or on-column. […] For SMARCA2^BD, prior to TEV protease cleavage the eluted GST-tagged BD was first dialysed into desalting buffer (20 mM HEPES, 250 mM sodium chloride, pH 7.0 + 0.5% glycerol). Where TEV cleavage was performed in solution, a second affinity (GST-trap) column purification step was carried out to remove the GST-tag and uncleaved GST-tagged protein. Proteins were further purified by SEC (HiLoad Superdex-75, 16/600) (GE Healthcare) and stored in Storage buffer (for SMARCA2^BD: 20 mM HEPES, 150 mM sodium chloride, pH 7.5; for SMARCA4^BD: 10 mM HEPES, 0.5 M NaCl, 5% glycerol, pH 7.5; for PBRM1^BD5: 20 mM HEPES, 300 mM NaCl, 5 mM DTT, pH 7.8). For AlphaScreen assays, eluted GST-tagged BDs were purified directly by SEC in the respective storage buffers without TEV cleavage. All chromatography purification steps were performed either at room temperature or 4 °C using an ÄKTA FPLC purification system (GE Healthcare) or a plastic Econo-Pac column (Bio-Rad).
SPR data were acquired on Biacore 8K or T200 instruments (Cytiva). Target proteins were immobilised at 25 °C on CM5 chips by amine coupling (EDC/NHS, Cytiva) in HBS-P+ running buffer (pH 7.4), containing 2 mM TCEP. […] The reference surface was subsequently deactivated using 1 M ethanolamine. […] Biotinylated VCB was prepared as previously described[27]: in brief, the complex was mixed 1:1 with EZ-Link NHS–PEG4–biotin (Thermo Scientific) and incubated at room temperature for 1 h. Unreacted NHS-biotin was removed using a PD-10 desalting column (Cytiva) into 20 mM HEPES, pH 7.5, 150 mM sodium chloride and 1 mM DTT. The reference surface was generated by deactivating the EDC/NHS-treated surface with 1 M ethanolamine. All interaction experiments were done at 6 °C in running buffer (20 mM TRIS, pH 8.3, 150 mM potassium chloride, 2 mM magnesium chloride, 2 mM TCEP, 0.005% TWEEN 20, 1% dimethyl sulfoxide). For ternary complex measurements, a sensor chip surface with VCB immobilised was used (preparation as described above). Experiments were run in dual-inject mode with 10 µM SMARCA present during the injection and dissociation phase. Sensorgrams from reference surfaces and blank injections were subtracted from the raw data prior to data analysis using Biacore Insight software.

Caco-2 cell monolayer = test: Bidirectional permeability measurement in Caco-2 cells; format: in vitro ADME; details: for Modified Caco-2 Pab + PGPi (Zosuquidar): Modified Caco-2, a to b
In short: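 Compound quantified by LC-MS/MS in samples taken over up to 2 h across 14–21-day Caco-2 monolayers, after 24 h preincubation with 1 µM compound. Runs done without and with 5 µM zosuquidar to probe P-gp. Efflux ratio is the quotient of duplicate-mean Papp,BA over Papp,AB.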

Microsomal stability = format: in vitro ADME; details: for Mic. Stab. Human / Mic. Stab. Human QH: human liver microsomes; for Mic. Stab. Mouse / Mic. Stab. Mouse QH: mouse liver microsomes; for Mic. Stab. Rat / Mic. Stab. Rat QH: rat liver microsomes
Description: […] Reactions were terminated by addition of acetonitrile and precipitates separated by centrifugation. Compound concentrations in supernatants were measured by HPLC-MS/MS and clearance was calculated from compound half-lives using the well-stirred liver model.

[2] = binary binding to VCB, mean ± SD

T1 sequence (P40337 54-213): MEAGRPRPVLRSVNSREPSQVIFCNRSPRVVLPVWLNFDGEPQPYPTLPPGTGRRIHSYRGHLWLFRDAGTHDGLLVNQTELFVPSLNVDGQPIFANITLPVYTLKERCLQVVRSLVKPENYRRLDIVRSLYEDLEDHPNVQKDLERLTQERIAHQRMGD
T1 sequence (Q15369 17-112 partner limits assumed): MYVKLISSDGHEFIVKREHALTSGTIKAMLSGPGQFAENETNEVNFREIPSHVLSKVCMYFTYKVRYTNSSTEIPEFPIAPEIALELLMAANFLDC
T1 sequence (Q15370 1-104 partner limits assumed): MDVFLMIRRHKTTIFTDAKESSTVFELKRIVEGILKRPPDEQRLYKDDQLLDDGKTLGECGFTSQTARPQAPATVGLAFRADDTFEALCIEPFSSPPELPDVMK

Row | SMILES | cooperativity α (SMARCA2BD) [1] | Kd (VCB complex; [2]) | Kd (VCB complex; binary, individual replicates) | Caco-2 Pab (Caco-2 cell monolayer; Caco-2) | Modified Caco-2 Efflux ratio (Caco-2 cell monolayer; Modified Caco-2) | Modified Caco-2 Pab (Caco-2 cell monolayer; Modified Caco-2) | Modified Caco-2 Pab + PGPi (Zosuquidar) (Caco-2 cell monolayer) | Modified Caco-2 Pba + PGPi (Zosuquidar) (Caco-2 cell monolayer; Modified Caco-2, b to a) | Mic. Stab. Human (Microsomal stability) | Mic. Stab. Human QH (Microsomal stability) | Mic. Stab. Mouse (Microsomal stability) | Mic. Stab. Mouse QH (Microsomal stability) | Mic. Stab. Rat (Microsomal stability) | Mic. Stab. Rat QH (Microsomal stability) | Caco-2 Pba (Caco-2 cell monolayer; Caco-2, b to a) | Modified Caco-2 Pba (Caco-2 cell monolayer; Modified Caco-2, b to a)
1 | Cc1ncsc1-c1ccc([C@H](COC(C)(C)CN2CCC(c3ccc4c(c3)n(C3CCCC3)c3nc(=O)c5c(Br)cccc5n43)CC2)NC(=O)[C@@H]2C[C@@H](O)CN2C(=O)[C@@H](NC(=O)C2(F)CC2)C(C)(C)C)cc1 [compound 28] | 3.8 ± 0.4 | 55 ± 29 nM | 50.4 nM and 131 nM and 47.1 nM and 49.5 nM and 39.6 nM and 49.4 nM and 39.8 nM and 43.6 nM and 44.9 nM | 5 ± 2 10-6 cm/s | 37.037 and >37 | <7 10-6 cm/s | 1.1e-05 cm/s and 1.3e-05 cm/s | 1.4e-05 cm/s | 57 ± 4 % QH | 51.200% and 55.600% and 59.900% and 60.900% | <24 % QH | < 24.200% and 25.800% | <23 % QH | < 23.100% and 29.700% |  | 
2 | Cc1ncsc1-c1ccc([C@H](COC(C)CN2CCC(c3ccc4c(c3)n(C3CCCC3)c3nc(=O)c5c(Br)cccc5n43)CC2)NC(=O)[C@@H]2C[C@@H](O)CN2C(=O)[C@@H](NC(=O)C2(F)CC2)C(C)(C)C)cc1 (stereo partly shown) [compound 9] | 7.0 ± 2.6 | 34 ± 6 nM | 39.9 nM and 37.9 nM and 30.4 nM and 26.2 nM |  | 60.000 and 39 ± 21 |  | 1.1e-05 cm/s and 1.4e-05 cm/s | 1.8e-05 cm/s | 55 ± 1 % QH | 54.100% and 55.600% | 27 ± 3 % QH | 24.700% and 28.800% and < 24.200% | <23 % QH | <23.100 <23.100 <23.100% | 2.1e-05 cm/s and 1.8e-05 cm/s | 0.00013 cm/s and 0.00012 cm/s
